The values that follow come from patent US20220023300A1, “THERAPEUTIC AND PROPHYLACTIC METHOD FOR TUMOR TREATABLE WITH ENDOCRINE THERAPY BY COMBINED USE OF FIBROBLAST GROWTH FACTOR RECEPTOR INHIBITOR WITH ENDOCRINE THERAPY” (TAIHO PHARMACEUTICAL CO., LTD., priority 2018, published 2022).

Data set [1] has as its system MDA-MB-134VI cells. Put plainly: Cell growth-inhibitory effect of combined use (T/C), CellTiter-Glo 2.0. As to conditions: for viability at 0.1 µM: Homo sapiens, MDA-MB-134-VI, 120 h, read-out: T/C (treated/control) cell viability. As for the experimental part: The cell viability was measured using CellTiter-Glo 2.0 (Promega). […] The number of cells seeded was 500 cells/80 μL per well. […] After drug addition, the cells were further incubated at 37° C. and 5% CO2 for 120 hours. Experiments were carried out in triplicate (3 wells per treatment group). The cell viability was calculated by adding 100 μL of CellTiter-Glo 2.0 reagent per well, incubating at room temperature for 30 minutes, and then measuring the chemiluminescence of each well with a plate reader (EnSpire). The cell viability in the case of drug addition was calculated as a ratio with respect to the control group, which was set to 100%, according to the following formula, and the average value of the data of three wells was used for the analysis.
Cell viability (%)=(chemiluminescence in the case of drug addition)/(chemiluminescence of control group)×100
A general note: Cellular ATP, detected with luciferase, serves as a proxy for viable cell number.

The test system of data set [2] is breast cancer. The following applies: phase II; subpopulation of FGF pathway-amplified breast cancer patients; cited from earlier work.

In the case of `C[C@]12CC[C@@H]3c4ccc(O)cc4C[C@@H](CCCCCCCCC[S+]([O-])CCCC(F)(F)C(F)(F)F)[C@H]3[C@@H]1CC[C@@H]2O` (stereo partly shown) [fulvestrant], in data set [1], the viability at 0.1 µM came out at 75%. For the same compound, the “median value of the mean progression-free survival (PFS)” value in data set [2] was 5.5 months. `C=CC(=O)N1CC[C@H](n2nc(C#Cc3cc(OC)cc(OC)c3)c3c(N)ncnc32)C1` [compound 1, (S)-1-(3-(4-amino-3-((3,5-dimethoxyphenyl)ethynyl)-1H-pyrazolo[3,4-d]pyrimidin-1-yl)pyrrolidin-1-yl)prop-2-en-1-one]: the viability at 0.1 µM in data set [1] was 35%.

As for 4-hydroxytamoxifen, the “T/C (treated/control) cell viability” value in data set [1] (MDA-MB-134VI, drug alone at 1 μM, 120 hours) amounted to 65%.
